ChEMBL document CHEMBL1201862, “PubChem BioAssay data set” (2004)
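Method: 48-hour compound exposure of cells in 96-well plates, five concentrations, linear interpolation of endpoints. GI50 = concentration required for 50% inhibition of growth.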 Calls of active or inactive are those of the source. Cut-off read from the data, not from the text of the source: active = GI50 up to about 1.1 µM and inactive = higher.

Assays:
Assay in all cases: NCI-60 cell line screen, 48 h
MDA-N = system: MDA-N
SF-295 = system: SF-295
NCI-H23 = system: NCI-H23
UO-31 = system: UO-31
M14 = system: M14
NCI-H460 = system: NCI-H460
OVCAR-5 = system: OVCAR-5
ACHN = system: ACHN
A498 = system: A498
PC-3 = system: PC-3
SNB-75 = system: SNB-75
SR = system: SR
K562 = system: K562
LOX IMVI = system: LOX IMVI
DU-145 = system: DU-145
786-0 = system: 786-0
TK-10 = system: TK-10
MDA-MB-231 = system: MDA-MB-231
SN12C = system: SN12C
NCI-H226 = system: NCI-H226

Structure (SMILES)	GI50 (MDA-N)	GI50 (SF-295)	GI50 (NCI-H23)	GI50 (UO-31)	GI50 (M14)	GI50 (NCI-H460)	GI50 (OVCAR-5)	GI50 (ACHN)	GI50 (A498)	GI50 (PC-3)	GI50 (SNB-75)	GI50 (SR)	GI50 (K562)	GI50 (LOX IMVI)	GI50 (DU-145)	GI50 (786-0)	GI50 (TK-10)	GI50 (MDA-MB-231)	GI50 (SN12C)	GI50 (NCI-H226)
CC(=O)Oc1cc2c(cc1OC(C)=O)[C@H]1CC[C@]3(C)[C@@H](OC(C)=O)CC[C@H]3[C@@H]1CC2	0.773 µM (active)	4.49 µM (inactive)	10.2 µM (inactive)	2.19 µM (inactive)	6 µM (inactive)	8.57 µM (inactive)	10.1 µM (inactive)	3.56 µM (inactive)	11.8 µM (inactive)	9.29 µM (inactive)	0.162 µM (active)	0.45 µM (active)	2.23 µM (inactive)	2.92 µM (inactive)	3.15 µM (inactive)	4.78 µM (inactive)	8.28 µM (inactive)	7.41 µM (inactive)	–	–
O=C1CC(Br)c2c(Cl)sc(Cl)c21 (configuration not stated)	3.21 µM (inactive)	16.4 µM (inactive)	16.4 µM (inactive)	4.06 µM (inactive)	9.75 µM (inactive)	18.2 µM (inactive)	18 µM (inactive)	12.2 µM (inactive)	20.3 µM (inactive)	10.8 µM (inactive)	15.2 µM (inactive)	3.89 µM (inactive)	2.17 µM (inactive)	1.94 µM (inactive)	17 µM (inactive)	3.04 µM (inactive)	2.54 µM (inactive)	9.98 µM (inactive)	14.1 µM (inactive)	–
CC(C)Cc1cnc(CC(C)C)c(=O)[nH]1	> 100 µM (inactive)	> 100 µM (inactive)	> 100 µM (inactive)	> 100 µM (inactive)	> 100 µM (inactive)	> 100 µM (inactive)	> 100 µM (inactive)	> 100 µM (inactive)	> 100 µM (inactive)	> 100 µM (inactive)	> 100 µM (inactive)	> 100 µM (inactive)	> 100 µM (inactive)	> 100 µM (inactive)	> 100 µM (inactive)	> 100 µM (inactive)	> 100 µM (inactive)	> 100 µM (inactive)	> 100 µM (inactive)	–
COCOCC1CCCN1CN1CCC[C@H]1COCOC (some centres not stated)	> 100 µM (inactive)	> 100 µM (inactive)	> 100 µM (inactive)	> 100 µM (inactive)	> 100 µM (inactive)	60.5 µM (inactive)	> 100 µM (inactive)	> 100 µM (inactive)	> 100 µM (inactive)	> 100 µM (inactive)	> 100 µM (inactive)	49.8 µM (inactive)	> 100 µM (inactive)	–	42.8 µM (inactive)	26.5 µM (inactive)	> 100 µM (inactive)	> 100 µM (inactive)	> 100 µM (inactive)	> 100 µM (inactive)
CC1(C)C=[N+]([O-])C(C)(C)N1	> 100 µM (inactive)	> 100 µM (inactive)	> 100 µM (inactive)	> 100 µM (inactive)	> 100 µM (inactive)	> 100 µM (inactive)	> 100 µM (inactive)	> 100 µM (inactive)	–	> 100 µM (inactive)	> 100 µM (inactive)	> 100 µM (inactive)	> 100 µM (inactive)	> 100 µM (inactive)	> 100 µM (inactive)	> 100 µM (inactive)	> 100 µM (inactive)	> 100 µM (inactive)	> 100 µM (inactive)	> 100 µM (inactive)
CC(=O)Oc1ccc2c(c1OC(C)=O)CCC1C2=CC[C@]2(C)C(=O)CCC12 (some centres not stated)	14.2 µM (inactive)	12.9 µM (inactive)	21.4 µM (inactive)	9.57 µM (inactive)	12.5 µM (inactive)	16.4 µM (inactive)	15.1 µM (inactive)	11.8 µM (inactive)	–	3.24 µM (inactive)	–	6.61 µM (inactive)	14 µM (inactive)	–	15.7 µM (inactive)	2.47 µM (inactive)	13.9 µM (inactive)	14.3 µM (inactive)	14.1 µM (inactive)	–
O=C1CS(=O)(=O)C(c2cccc(Oc3ccccc3)c2)N1c1cc(Cl)ccc1Cl (configuration not stated)	16.7 µM (inactive)	22.9 µM (inactive)	29.1 µM (inactive)	20.1 µM (inactive)	20.4 µM (inactive)	21.9 µM (inactive)	29.6 µM (inactive)	19.7 µM (inactive)	–	14.7 µM (inactive)	14.6 µM (inactive)	16.8 µM (inactive)	27.4 µM (inactive)	14 µM (inactive)	17.9 µM (inactive)	19.2 µM (inactive)	30.1 µM (inactive)	17.5 µM (inactive)	20.7 µM (inactive)	19.2 µM (inactive)
NC(Cc1ccc2nc3c4ccccc4c(=O)cc-3oc2c1)C(=O)O (configuration not stated)	16 µM (inactive)	> 100 µM (inactive)	17.6 µM (inactive)	> 100 µM (inactive)	25.3 µM (inactive)	> 100 µM (inactive)	> 100 µM (inactive)	> 100 µM (inactive)	–	> 100 µM (inactive)	65.8 µM (inactive)	> 100 µM (inactive)	> 100 µM (inactive)	45.8 µM (inactive)	> 100 µM (inactive)	> 100 µM (inactive)	> 100 µM (inactive)	> 100 µM (inactive)	> 100 µM (inactive)	–
